Results from PMC7508583, “Discovery and Preclinical Development of Antigiardiasis Fumagillol Derivatives” (Antimicrobial Agents and Chemotherapy, 2020).

What was measured:
[1] = test system: G. lamblia GS trophozoites; test: Trophozoite viability MLC determination; format: cell-based, Giardia lamblia
Experimental: The inhibition of metabolism enables the organism to resume proliferation once treatment is completed. To discriminate between the lethality of the promising compounds and the induction of metabolic inactivity by the promising compounds, the minimum lethal concentration (MLC) values were determined by treating the trophozoites with the test compounds for 3 days and transferring the resulting cultures to medium lacking the compounds for 3 days of proliferation. This assay was described previously for G. lamblia ([18]) and was adapted to E. histolytica in the current study.
Trophozoites of G. lamblia isolates WB and GS were grown anaerobically in borosilicate glass screw-cap culture tubes (Fisher Scientific) at pH 7.0 in Keister’s modified TYI-S-33 medium (ATCC). The medium was supplemented with 10% heat-inactivated bovine serum (Sigma-Aldrich) and 0.05% bovine bile (Sigma-Aldrich). To attain low-oxygen-tension conditions, the tubes were filled to 85% to 90% of their total volume capacity and incubated without shaking at 37°C. Subcultures (2 × 10^5 trophozoites per tube) were made three times a week. Detachment of trophozoites for inoculation was achieved by chilling the cultures on ice for 20 min. Culturing and detachment of metronidazole-resistant G. lamblia assemblage A 713M3 and assemblage B 1279-M1 trophozoites followed the same protocol, except that the growth medium was supplemented with metronidazole, with the concentration gradually being increased to 10 μM.
Compounds were prepared by 2-fold serial dilutions in growth medium containing 0.5% DMSO (diluted from a starting concentration of 1 μM to 12 concentrations for all compounds except metronidazole, fumagillol, and TNP-470, which were diluted from 100 μM), and 100 μl/well was transferred in duplicate to the 96-well culture plate. Ten microliters of G. lamblia trophozoites was plated at a density of 10,000 cells/well. The plates were incubated under anaerobic condition in a BD GasPak EZ container system (BD Diagnostics) at 37°C for 72 h and surveyed visually under a microscope to check trophozoite survival, mobility, and attachment. […] The tubes were incubated under anaerobic condition for 3 days at 37°C and checked under a microscope. The MLC value was the concentration in the tube with the lowest compound concentration without any live organism.

[2] = set-up: method as in earlier work; conditions: degraded from 98% purity; Sanofi; cited from earlier work

SMILES	fold improved MLCs compared with the MLC of fumagillin [1] [fold]	purity after storage at 40°C for 2 weeks at ambient humidity [2] [%]
COC1C(OC(=O)NC(=O)CN2CCOCC2)CCC2(CO2)C1C1(C)OC1CC=C(C)C (centres unmarked) [Compound 3]	~100	–
CO[C@@H]1[C@H](OC(=O)/C=C/C=C/C=C/C=C/C(=O)O)CC[C@]2(CO2)[C@H]1[C@@]1(C)O[C@@H]1CC=C(C)C [Fumagillin, reference compound]	–	85
